Measurements reported in ChEMBL document CHEMBL1146120 (J Med Chem, 2006).
The source made the active and inactive calls. The calls are words filed in the database; no cut-off is given here.

species: Rattus norvegicus; test: Inhibition of NO-mediated vasorelaxation of KCl-induced contractile tone in Wistar rat thoracic aortic ring; type: functional; settings: Aorta

Question: With `CCCCc1nc(Cl)c(COC(=O)CCCCO[N+](=O)[O-])n1Cc1ccc(-c2ccccc2-c2nn[nH]n2)cc1` as the compound, how does the IC50 read?
Answer: The IC50 was 0.851 µM.

Question: Which IC50 does the source give for `CCCCc1nc(Cl)c(CO[N+](=O)[O-])n1Cc1ccc(-c2ccccc2-c2nn[nH]n2)cc1` [LOSARTAN NITROOXY ESTER] here?
Answer: The IC50 was 15.1 µM.

Question: For `CCCCc1nc(Cl)c(C(=O)Oc2ccc(CO[N+](=O)[O-])cc2)n1Cc1ccc(-c2ccccc2-c2nn[nH]n2)cc1`, which IC50 is on record?
Answer: Its IC50 is 0.275 µM.

Question: `CCCCc1nc(Cl)c(COC(=O)c2ccc(C(C)O[N+](=O)[O-])cc2)n1Cc1ccc(-c2ccccc2-c2nn[nH]n2)cc1` (stereo not given) was tested. Which IC50 did it give?
Answer: Its IC50 is 7.76 µM.

Question: For `CCCCc1nc(Cl)c(COC(=O)c2ccc(CO[N+](=O)[O-])cc2)n1Cc1ccc(-c2ccccc2-c2nn[nH]n2)cc1`, which IC50 is on record?
Answer: The IC50 was 0.0661 µM.

Question: How did the IC50 turn out when `CCCCc1nc(Cl)c(COC(=O)c2cccc(CO[N+](=O)[O-])n2)n1Cc1ccc(-c2ccccc2-c2nn[nH]n2)cc1` was run?
Answer: Its IC50 is 12.3 µM.

Question: For `CCCCc1nc(Cl)c(C(=O)Oc2cccc(CO[N+](=O)[O-])c2)n1Cc1ccc(-c2ccccc2-c2nn[nH]n2)cc1`, which IC50 is on record?
Answer: The IC50 was 6.03 µM.

Question: `CCCCc1nc(Cl)c(COC(=O)c2c(C)ccc(CO[N+](=O)[O-])c2C)n1Cc1ccc(-c2ccccc2-c2nn[nH]n2)cc1` was tested. Which IC50 did it give?
Answer: Its IC50 is 32.4 µM.

Question: Which IC50 does the source give for `CCCCc1nc(Cl)c(COC(=O)c2cccc(CO[N+](=O)[O-])c2)n1Cc1ccc(-c2ccccc2-c2nn[nH]n2)cc1` here?
Answer: The IC50 was 0.275 µM.

species: Rattus norvegicus; test: Activity against NO-mediated vasorelaxation of KCl-induced contractile tone in Wistar rat thoracic aortic ring; type: functional; settings: Aorta

Question: Which Emax does the source give for `CCCCc1nc(Cl)c(COC(=O)CCCCO[N+](=O)[O-])n1Cc1ccc(-c2ccccc2-c2nn[nH]n2)cc1` here?
Answer: Its Emax is 100%.

Question: How did the Emax turn out when `CCCCc1nc(Cl)c(COC(=O)c2cccc(C(C)O[N+](=O)[O-])c2)n1Cc1ccc(-c2ccccc2-c2nn[nH]n2)cc1` (stereo not given) was run?
Answer: The Emax was 47%.

Question: For `CCCCc1nc(Cl)c(CO[N+](=O)[O-])n1Cc1ccc(-c2ccccc2-c2nn[nH]n2)cc1` [LOSARTAN NITROOXY ESTER], which Emax is on record?
Answer: The Emax was 100%.

Question: Which Emax does the source give for `CCCCc1nc(Cl)c(C(=O)Oc2ccc(CO[N+](=O)[O-])cc2)n1Cc1ccc(-c2ccccc2-c2nn[nH]n2)cc1` here?
Answer: The Emax was 100%.

Question: For `CCCCc1nc(Cl)c(COC(=O)c2ccc(C(C)O[N+](=O)[O-])cc2)n1Cc1ccc(-c2ccccc2-c2nn[nH]n2)cc1` (stereo not given), which Emax is on record?
Answer: Its Emax is 100%.

Question: How did the Emax turn out when `CCCCc1nc(Cl)c(COC(=O)c2ccc(CO[N+](=O)[O-])cc2)n1Cc1ccc(-c2ccccc2-c2nn[nH]n2)cc1` was run?
Answer: The Emax was 100%.

Question: With `CCCCc1nc(Cl)c(COC(=O)c2cccc(CO[N+](=O)[O-])n2)n1Cc1ccc(-c2ccccc2-c2nn[nH]n2)cc1` as the compound, how does the Emax read?
Answer: The Emax was 100%.

Question: How did the Emax turn out when `CCCCc1nc(Cl)c(C(=O)Oc2cccc(CO[N+](=O)[O-])c2)n1Cc1ccc(-c2ccccc2-c2nn[nH]n2)cc1` was run?
Answer: Its Emax is 100%.

Question: How did the Emax turn out when `CCCCc1nc(Cl)c(COC(=O)c2c(C)ccc(CO[N+](=O)[O-])c2C)n1Cc1ccc(-c2ccccc2-c2nn[nH]n2)cc1` was run?
Answer: Its Emax is 100%.

Question: How did the Emax turn out when `CCCCc1nc(Cl)c(COC(=O)c2cccc(CO[N+](=O)[O-])c2)n1Cc1ccc(-c2ccccc2-c2nn[nH]n2)cc1` was run?
Answer: Its Emax is 100%.

target: T1, Type-1 angiotensin II receptor (Homo sapiens) (UniProt P30556); test: Antagonist activity against AT1 receptor after 20 min preincubation; type: functional; settings: not given
T1 sequence (whole entry): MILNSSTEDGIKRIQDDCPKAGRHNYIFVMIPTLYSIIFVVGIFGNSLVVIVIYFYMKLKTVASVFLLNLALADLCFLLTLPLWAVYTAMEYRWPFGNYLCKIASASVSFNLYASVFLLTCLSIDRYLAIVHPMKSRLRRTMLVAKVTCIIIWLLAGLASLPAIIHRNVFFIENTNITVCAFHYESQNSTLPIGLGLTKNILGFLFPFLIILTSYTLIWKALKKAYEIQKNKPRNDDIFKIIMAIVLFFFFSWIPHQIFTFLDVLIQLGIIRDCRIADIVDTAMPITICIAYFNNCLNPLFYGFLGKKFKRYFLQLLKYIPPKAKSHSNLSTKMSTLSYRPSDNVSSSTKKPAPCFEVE

Question: How did the Kb turn out when `CCCCc1nc(Cl)c(COC(=O)CCCCO[N+](=O)[O-])n1Cc1ccc(-c2ccccc2-c2nn[nH]n2)cc1` was run?
Answer: Its Kb is 0.016 µM.

Question: `CCCCc1nc(Cl)c(COC(=O)c2cccc(C(C)O[N+](=O)[O-])c2)n1Cc1ccc(-c2ccccc2-c2nn[nH]n2)cc1` (stereo not given) was tested. Which Kb did it give?
Answer: Its Kb is “inactive”.

Question: `CCCCc1nc(Cl)c(CO[N+](=O)[O-])n1Cc1ccc(-c2ccccc2-c2nn[nH]n2)cc1` [LOSARTAN NITROOXY ESTER] was tested. Which Kb did it give?
Answer: The Kb was “inactive”.

Question: Which Kb does the source give for `CCCCc1nc(Cl)c(C(=O)Oc2ccc(CO[N+](=O)[O-])cc2)n1Cc1ccc(-c2ccccc2-c2nn[nH]n2)cc1` here?
Answer: The Kb was “inactive”.

Question: `CCCCc1nc(Cl)c(COC(=O)c2ccc(C(C)O[N+](=O)[O-])cc2)n1Cc1ccc(-c2ccccc2-c2nn[nH]n2)cc1` (stereo not given) was tested. Which Kb did it give?
Answer: Its Kb is “inactive”.

Question: How did the Kb turn out when `CCCCc1nc(Cl)c(COC(=O)c2ccc(CO[N+](=O)[O-])cc2)n1Cc1ccc(-c2ccccc2-c2nn[nH]n2)cc1` was run?
Answer: Its Kb is 0.019 µM.

Question: How did the Kb turn out when `CCCCc1nc(Cl)c(COC(=O)c2cccc(CO[N+](=O)[O-])n2)n1Cc1ccc(-c2ccccc2-c2nn[nH]n2)cc1` was run?
Answer: The Kb was 0.008 µM.

Question: Which Kb does the source give for `CCCCc1nc(Cl)c(COC(=O)c2c(C)ccc(CO[N+](=O)[O-])c2C)n1Cc1ccc(-c2ccccc2-c2nn[nH]n2)cc1` here?
Answer: Its Kb is “inactive”.

target: T1, Type-1 angiotensin II receptor (Homo sapiens); test: Antagonist activity against AT1 receptor after 60 min preincubation; type: functional; settings: not given

Question: Which Kb does the source give for `CCCCc1nc(Cl)c(COC(=O)c2cccc(C(C)O[N+](=O)[O-])c2)n1Cc1ccc(-c2ccccc2-c2nn[nH]n2)cc1` (stereo not given) here?
Answer: The Kb was 0.012 µM.

Question: Which Kb does the source give for `CCCCc1nc(Cl)c(CO[N+](=O)[O-])n1Cc1ccc(-c2ccccc2-c2nn[nH]n2)cc1` [LOSARTAN NITROOXY ESTER] here?
Answer: The Kb was 0.003 µM.

Question: How did the Kb turn out when `CCCCc1nc(Cl)c(COC(=O)c2ccc(C(C)O[N+](=O)[O-])cc2)n1Cc1ccc(-c2ccccc2-c2nn[nH]n2)cc1` (stereo not given) was run?
Answer: The Kb was 0.008 µM.

Question: `CCCCc1nc(Cl)c(COC(=O)c2cccc(CO[N+](=O)[O-])c2)n1Cc1ccc(-c2ccccc2-c2nn[nH]n2)cc1` was tested. Which Kb did it give?
Answer: The Kb was 0.01 µM.

tested on: Rattus norvegicus; test: Antihypertrophic activity in Wistar rat at 21.3 mg/kg, ip; type: functional, organism-based; design: dose 21.3 mg/kg; settings: not given

Question: How did the Activity turn out when `CCCCc1nc(Cl)c(CO)n1Cc1ccc(-c2ccccc2-c2nnn[nH]2)cc1` [LOSARTAN] was run?
Answer: The Activity was “Active”.

Question: How did the Activity turn out when `C[C@H](CS)C(=O)N1CCC[C@H]1C(=O)O` was run?
Answer: The Activity was “Active”.

Question: With `CCCCc1nc(Cl)c(COC(=O)c2cccc(CO[N+](=O)[O-])c2)n1Cc1ccc(-c2ccccc2-c2nn[nH]n2)cc1` as the compound, how does the Activity read?
Answer: The Activity was “Active”.

tested on: Plasma; test: Inhibition of ADP-mediated platelet aggregation in Wistar rat platelet-rich plasma at 100 uM; type: functional; design: scale not given: the % may be the effect or the level left; settings: not given

Question: `CCCCc1nc(Cl)c(CO)n1Cc1ccc(-c2ccccc2-c2nnn[nH]2)cc1` [LOSARTAN] was tested. Which Activity did it give?
Answer: Its Activity is 50%.

Question: For `CCCCc1nc(Cl)c(COC(=O)c2cccc(CO[N+](=O)[O-])c2)n1Cc1ccc(-c2ccccc2-c2nn[nH]n2)cc1`, which Activity is on record?
Answer: Its Activity is 41%.

species: Rattus norvegicus; test: Activity against NO-mediated vasorelaxation of KCl-induced contractile tone in Wistar rat thoracic aortic ring at 1 uM; type: functional, Aorta; design: scale not given: the % may be the effect or the level left; settings: not given

Question: How did the Activity turn out when `CCCCc1nc(Cl)c(COC(=O)c2cccc(C(C)O[N+](=O)[O-])c2)n1Cc1ccc(-c2ccccc2-c2nn[nH]n2)cc1` (stereo not given) was run?
Answer: The Activity was under 25%.

Question: `CCCCc1nc(Cl)c(CO[N+](=O)[O-])n1Cc1ccc(-c2ccccc2-c2nn[nH]n2)cc1` [LOSARTAN NITROOXY ESTER] was tested. Which Activity did it give?
Answer: The Activity was under 25%.

Question: `CCCCc1nc(Cl)c(COC(=O)c2ccc(C(C)O[N+](=O)[O-])cc2)n1Cc1ccc(-c2ccccc2-c2nn[nH]n2)cc1` (stereo not given) was tested. Which Activity did it give?
Answer: The Activity was under 25%.

Question: With `CCCCc1nc(Cl)c(COC(=O)c2cccc(CO[N+](=O)[O-])n2)n1Cc1ccc(-c2ccccc2-c2nn[nH]n2)cc1` as the compound, how does the Activity read?
Answer: Its Activity is under 25%.

Question: How did the Activity turn out when `CCCCc1nc(Cl)c(C(=O)Oc2cccc(CO[N+](=O)[O-])c2)n1Cc1ccc(-c2ccccc2-c2nn[nH]n2)cc1` was run?
Answer: Its Activity is under 25%.

Question: Which Activity does the source give for `CCCCc1nc(Cl)c(COC(=O)c2c(C)ccc(CO[N+](=O)[O-])c2C)n1Cc1ccc(-c2ccccc2-c2nn[nH]n2)cc1` here?
Answer: The Activity was under 25%.

same assay, conditions: Aorta

Question: For `CCCCc1nc(Cl)c(C(=O)Oc2ccc(CO[N+](=O)[O-])cc2)n1Cc1ccc(-c2ccccc2-c2nn[nH]n2)cc1`, which Activity is on record?
Answer: The Activity was “Active”.

Question: For `CCCCc1nc(Cl)c(COC(=O)c2ccc(CO[N+](=O)[O-])cc2)n1Cc1ccc(-c2ccccc2-c2nn[nH]n2)cc1`, which Activity is on record?
Answer: The Activity was “Active”.

Question: How did the Activity turn out when `CCCCc1nc(Cl)c(COC(=O)c2cccc(CO[N+](=O)[O-])c2)n1Cc1ccc(-c2ccccc2-c2nn[nH]n2)cc1` was run?
Answer: The Activity was “Active”.
